We go through 6 substances from US12357695B2, “Peptides and nanoparticles for intracellular delivery of molecules” (AADIGEN, LLC, priority 2019, dated 2025).

Square brackets hold non-standard residues; d marks the D form. Ends that are not written are not given here. Stearyl = stearyl group covalently linked to the N-terminus; βAla = NCCC(=O)O

The subject of data set [1] is mice. The data set can be described thus: In vivo delivery of Luciferase mRNA, intravenous administration, bioluminescence imaging. The conditions noted are these: 5 μg Luc mRNA; for mRNA / luciferase expression and tissues: single dose. As for the experimental part: FIGS. 4A-4D show the potency of ADGN-peptide variants for in vivo delivery of Luciferase mRNA via intravenous administration in mice. ADGN-peptide/luc mRNA particles containing 5 μg mRNA were formed in sterile water, and then diluted in 5% sucrose. Mice received IV injection of 100 μl ADGN-peptide/mRNA complexes. mRNA LUC expression was monitored by bioluminescence imaging after 12 h, 24 h, 48 h and 72 h. FIG. 4B show bioluminescence imaging at 24 hr in control and treated groups. Semi-quantitative data of luciferase signal in the liver (C) and in the lung (D) were obtained using the manufacturer's software (Living Image; PerkinElmer). Results were then expressed as values relative to day 0.
(§1) Stable ADGN-peptides/mRNA were evaluated for in vivo delivery of Luciferase mRNA via intravenous and intramuscular administrations. Animals were treated with single dose of 5 moU modified Luc mRNA of 5 μg. 5 moU modified Luc mRNA (5 μg) in sterile water (GIBCO) were mixed with ADGN peptide (sterile water), volume for each sample was adjusted to 100 μl, with sterile water containing 5% Sucrose. Samples were mixed gently with vortex for 1 minute at low speed and incubated for 30 min at room temperature. Samples were filtered on 0.45 μm PES filters prior administration. For IV administration Mice received 100 μl intravenous (IV) injection of either ADGN-106/mRNA, ADGN-100/mRNA, ADGN-106RI/mRNA, ADGN-100-stearyl/mRNA, ADGN-100Hydro1/mRNA, ADGN-100Hydro2 or ADGN/mRNA complexes containing 10% of ADGN-100PEG (3 animals per group). As control, mice from group 3 (2 animals per group) received IV injection of 100 μl of naked 5 moU modified Luc mRNA (5 μg). For IM administration, mice received 25 μl (5 μg mRNA) IV injection of either ADGN-100/mRNA, ADGN-106/mRNA, ADGN-106RI/mRNA or ADGN/mRNA complexes containing 10% or 20% of ADGN-100PEG (2 animals per group). As control, mice from group 3 (2 animals per group) received IV injection of 25 μl of naked 5 moU modified Luc mRNA (5 μg).
(§2) mRNA Luc expression was monitored by bioluminescence. Bioluminescence imaging was performed after 12, 24, 48 and 72 hrs. Mice received an i.p. injection of 150 μg/g luciferin for noninvasive bioluminescence imaging (IVIS Kinetic; PerkinElmer, Waltham, MA, USA).

The nature of data set [2]: DLS particle size and level of aggregation of ADGN-peptide/mRNA complexes. It is filed as physicochemical. Particulars: retro inverso modification vs parent peptide. As for the experimental part: Complex formation with mRNA. The following protocols were used for the transfection of 2-5 106 Cells or Cells at confluency of about 70-80% cultured in 24 well plates. ADGN peptide/mRNA particles were prepared at a 20:1 molar ratio of ADGN-Peptide/mRNA. using (0.25 μg) mRNA. Luc mRNA (0.25 μg) was diluted in 20 μl of sterile water (GIBCO) at room temperature. 5 μl Final Peptide Solution was added to obtain a total volume of 20 μl. The volume was adjusted to 50 μl with sterile water and was mixed gently with vortex 1 min low speed and incubated 30 min at room temperature. Then the volume was made up to 100 μl by adding sterile water containing 5% sucrose, and the solution was mixed gently with vortex 1 min low speed and incubate 5 min at 37° C. and then was proceeded to cell transfection.
The ability of the different ADGN-peptides to form stable nanoparticles with mRNA was analyzed. The particle sizes and level of aggregation were measured on DLS NanoZS (Malvern Ltd). The mean size and the polydispersity of the ADGN/mRNA complexes were determined at 25° C. for 3 minute per measurement. In order to remove large particles, ADGN/mRNA complexed were filtered using either PES or PVDF 0.45 μm filters. Data are shown in FIG. 8 and FIG. 9 for a mean of 3 separate experiments.

Data set [3] concerns mice. Put plainly: In vivo delivery of Luciferase mRNA, intramuscular administration, bioluminescence imaging. The conditions noted are these: IM, Luc mRNA. As for the experimental part:
FIGS. 5A-5B show the potency of ADGN-peptide variants for in vivo delivery of Luciferase mRNA via intramuscular administration in mice. ADGN-peptide/luc mRNA particles containing 2.5 μg mRNA were formed in sterile water, and then diluted in 5% sucrose. Mice received […] injection o 25 μl ADGN-peptide/mRNA complexes. mRNA LUC expression was monitored by bioluminescence imaging after 12 h, 24 h and 48h (A). FIG. 5B show bioluminescence imaging at 24 hr in control and treated groups.
as §1, §2

With “Ac-GYVS-(G)4-KWRSALWRWRLWRVRSWSR-NH2 (Ac-GYVSGGGGKWRSALWRWRLWRVRSWSR-NH2) [ADGN-100 hydro-2]”, the “mRNA / luciferase expression and tissues” value in the data set on mice [1] is “negligible luciferase expression”.

Regarding “Stearyl-βA-KWRSALWRWRLWRVRSWSR-NH2 (Stearyl-[βAla]KWRSALWRWRLWRVRSWSR-NH2; not fully specified; printed as Stearyl-βA-KWRSALWRWRLWRVRSWSR-NH2) [ADGN-100 Stearyl]”, in the data set on mice [1], the “mRNA / luciferase expression and tissues” value was “mainly observed in the liver and at lower level in the lung and the kidney”.

With “akwllrwlsrwlrwlarwlr ([dA][dK][dW][dL][dL][dR][dW][dL][dS][dR][dW][dL][dR][dW][dL][dA][dR][dW][dL][dR]; also: retro-inverso) [ADGN-106-RI]”, the “increase of luciferase expression / efficiency relative to ADGN-106” value with mice [1] (all / different tissues) came out at 2 fold. Besides, the “mRNA / luciferase expression and tissues” value with mice [1] was “mainly observed in the liver and at lower level in the lung and the kidney”. Further, the “ability of the peptide to form stable complex with mRNA” value in data set [2] is reported as “did not modify the ability of the peptide to form stable complex with mRNA”. Also, in the data set on mice [3], the “increase of luciferase expression in the muscle / efficiency relative to ADGN-106” value is listed as 6 fold and the luciferase expression result is reported as “mediated Luciferase expression following intramuscular (IM) administration”.

Regarding “rswsrvrwlrwrwgasrwk ([dR][dS][dW][dS][dR][dV][dR][dW][dL][dR][dW][dR][dW]G[dA][dS][dR][dW][dK]; also: retro-inverso) [ADGN-100-RI]”, the “ability of the peptide to form stable complex with mRNA” value in data set [2] is given as “did not modify the ability of the peptide to form stable complex with mRNA”.

As to “βAKWRSAGWRWRLW RVRSWSR (AKWRSAGWRWRLWRVRSWSR; N-terminal beta-alanine; VARIANT 1 beta-A) [ADGN-100]”, the “mRNA / luciferase expression and tissues” value in the data set with mice [1] was “mainly observed in the liver and at lower level in the lung and the kidney”. Besides, the luciferase expression result with mice [3] is reported as “no significant expression”.

As for “βALWRALWRLWRSLWRLLWKA ([βAla]LWRALWRLWRSLWRLLWKA) [ADGN-106]”, in the data set with mice [1], the “efficiency relative to ADGN-100” value was found to be 4 folds; the “efficiency relative to ADGN-100 stearyl” value is listed as 2 folds; the “mRNA / luciferase expression and tissues” value was “mainly observed in the liver and at lower level in the lung and the kidney”. The luciferase expression entry in the data set with mice [3] is reported as “mediated Luciferase expression following intramuscular (IM) administration”.
